# Experimental data published in patent US8293768B2, “Organic compounds” (Novartis AG, priority 2006, dated 2012).
row,melting point,SMILES
1,176 to 177 °C,"Cc1nc(N2CCN(Cc3ccccc3)C2=O)sc1C(=O)NCc1cc(F)ccc1F [Example 9.2, 2-(3-benzyl-2-oxoimidazolidin-1-yl)-N-(2,5-difluorobenzyl)-4-methylthiazole-5-carboxamide]"
2,157 to 158 °C,"Cc1nc(N2CCN(Cc3ccccc3)C2=O)sc1C(=O)NCc1ccc(F)cc1F [Example 9.4, 2-(3-benzyl-2-oxoimidazolidin-1-yl)-N-(2,4-difluorobenzyl)-4-methylthiazole-5-carboxamide]"
3,178 to 179 °C,"Cc1nc(N2CCN(Cc3ccccc3)C2=O)sc1C(=O)NCc1cccc(Cl)c1 [Example 9.6, 2-(3-benzyl-2-oxoimidazolidin-1-yl)-N-(3-chlorobenzyl)-4-methylthiazole-5-carboxamide]"
4,153 to 154 °C,"Cc1nc(N2CCN(Cc3ccccc3)C2=O)sc1C(=O)NCc1cccnc1 [Example 9.7, 2-(3-benzyl-2-oxoimidazolidin-1-yl)-4-methyl-N-(pyridin-3-ylmethyl)thiazole-5-carboxamide]"
5,96 to 97 °C,"Cc1nc(N2CCN(Cc3ccccc3)C2=O)sc1C(=O)NCc1ccncc1 [Example 9.9, 2-(3-benzyl-2-oxoimidazolidin-1-yl)-4-methyl-N-(pyridin-4-ylmethyl)thiazole-5-carboxamide]"
6,137 to 138 °C,"Cc1nc(N2CCN(CCC3CC3)C2=O)sc1C(=O)NCc1ccccc1 [Example 9.17, N-benzyl-2-(3-(2-cyclopropylethyl)-2-oxoimidazolidin-1-yl)-4-methylthiazole-5-carboxamide]"

# The remaining lines, values behind:
row,SMILES,melting point
1,"Cc1nc(N2CCN(Cc3ccccc3)C2=O)sc1C(=O)NCc1ccccc1F [Example 9.1, 2-(3-benzyl-2-oxoimidazolidin-1-yl)-N-(2-fluorobenzyl)-4-methylthiazole-5-carboxamide]",167 to 168 °C
2,"Cc1nc(N2CCN(Cc3ccccc3)C2=O)sc1C(=O)NCc1cc(F)cc(F)c1 [Example 9.3, 2-(3-benzyl-2-oxoimidazolidin-1-yl)-N-(3,5-difluorobenzyl)-4-methylthiazole-5-carboxamide]",208 to 209 °C
3,"Cc1nc(N2CCN(Cc3ccccc3)C2=O)sc1C(=O)NCc1ccc(F)c(F)c1 [Example 9.5, 2-(3-benzyl-2-oxoimidazolidin-1-yl)-N-(3,4-difluorobenzyl)-4-methylthiazole-5-carboxamide]",152 to 153 °C
4,"Cc1ccc(CNC(=O)c2sc(N3CCN(Cc4ccccc4)C3=O)nc2C)o1 [Example 9.10, 2-(3-benzyl-2-oxoimidazolidin-1-yl)-4-methyl-N-((5-methylfuran-2-yl)methyl)thiazole-5-carboxamide]",138 to 139 °C
5,"Cc1nc(N2CCN(CCc3ccccc3)C2=O)sc1C(=O)NCc1ccccc1 [Example 9.11, N-benzyl-4-methyl-2-(2-oxo-3-phenethylimidazolidin-1-yl)thiazole-5-carboxamide]",156 to 157 °C
6,"Cc1nc(N2CCN(Cc3ccc(C(F)(F)F)cc3)C2=O)sc1C(=O)NCc1cccnc1 [Example 9.12, 4-methyl-2-(2-oxo-3-(4-(trifluoromethyl)benzyl)imidazolidin-1-yl)-N-(pyridin-3-ylmethyl)thiazole-5-carboxamide]",107 to 108 °C
7,"Cc1nc(N2CCN(Cc3ccc(C(F)(F)F)cc3)C2=O)sc1C(=O)NCc1ccccc1 [Example 9.13, N-benzyl-4-methyl-2-(2-oxo-3-(4-(trifluoromethyl)benzyl)imidazolidin-1-yl)thiazole-5-carboxamide]",127 to 128 °C
8,"Cc1nc(N2CCN(CC3CC3)C2=O)sc1C(=O)NCc1ccccc1 [Example 9.14, N-benzyl-2-(3-(cyclopropylmethyl)-2-oxoimidazolidin-1-yl)-4-methylthiazole-5-carboxamide]",142 to 143 °C
9,"Cc1nc(N2CCN(CC3CC3)C2=O)sc1C(=O)NCc1ccc(F)cc1 [Example 9.15, 2-(3-(cyclopropylmethyl)-2-oxoimidazolidin-1-yl)-N-(4-fluorobenzyl)-4-methylthiazole-5-carboxamide]",146 to 147 °C
